Laboratory results reported in patent US10206937B2, “Boronic acid derivatives and therapeutic uses thereof” (Qpex Biopharma, Inc., priority 2014, dated 2019).

Columns and labels:
NDM-1 [1] = biological target: T1, NDM-1 (Klebsiella pneumoniae, UniProt C7C422); test: Inhibition of purified class B carbapenemase NDM-1 (Ki, imipenem substrate); type: biochemical; conditions: NDM-1, substrate imipenem; read-out: Ki NDM-1, Imipenem
VIM-1 = biological target: T2, VIM-1 (Pseudomonas aeruginosa, UniProt A0A0F7KYQ8); test: biochemical; conditions: cleavage of nitrocefin (200 uM) by VIM-1 supernatant
T2 construct: made in house; host or cells: ECM6711 strain carrying pUCP24-VIM-1 plasmid; culture supernatant used unpurified

[2] = biological target: T3, purified class A, C and D enzymes (UniProt Q9F663); type: biochemical; conditions: read-out: Ki (KPC-2, NCF); purified KPC-2; nitrocefin reporter substrate
T3 construct: rows headed: Ki (KPC-2, NCF); other: purified KPC-2; nitrocefin reporter substrate

[3] = biological target: T4, purified class A, C and D enzymes (UniProt P0AD64, L31Q/G234S/E235K, species not given); type: biochemical; conditions: read-out: Ki (SHV-12, NCF); purified SHV-12; nitrocefin reporter substrate
T4 construct: Ki (SHV-12, NCF); other: purified SHV-12; nitrocefin reporter substrate
T4 sequence (P0AD64 1-286 L31Q/G234S/E235K): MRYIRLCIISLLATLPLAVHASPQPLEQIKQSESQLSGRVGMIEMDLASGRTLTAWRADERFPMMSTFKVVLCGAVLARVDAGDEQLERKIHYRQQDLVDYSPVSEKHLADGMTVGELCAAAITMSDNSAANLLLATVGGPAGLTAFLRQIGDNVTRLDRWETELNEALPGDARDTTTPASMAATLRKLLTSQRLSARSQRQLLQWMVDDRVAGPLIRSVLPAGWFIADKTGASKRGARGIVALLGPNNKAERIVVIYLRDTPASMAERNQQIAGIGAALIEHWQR

[4] = biological target: T5, purified class A, C and D enzymes (UniProt Q6XEC0); type: biochemical; conditions: read-out: Ki (OXA-48, NCF); purified OXA-48; nitrocefin reporter substrate
T5 construct: rows headed: Ki (OXA-48, NCF); other: purified OXA-48; nitrocefin reporter substrate

[5] = biological target: purified class A, C and D enzymes (Escherichia coli, UniProt Q9L5C7); type: biochemical; conditions: purified CTX-M-14; nitrocefin reporter substrate
[6] = biological target: purified class A, C and D enzymes (Enterobacter cloacae, UniProt P05364); type: biochemical; conditions: purified P99/AmpC of ECL; nitrocefin reporter substrate
NDM-1 [7] = biological target: T1, NDM-1; test: biochemical; conditions: cleavage of imipenem (100 uM) by NDM-1; read-out: Ki, Imipenem

T1 sequence (C7C422 29-270, looked up, species assumed): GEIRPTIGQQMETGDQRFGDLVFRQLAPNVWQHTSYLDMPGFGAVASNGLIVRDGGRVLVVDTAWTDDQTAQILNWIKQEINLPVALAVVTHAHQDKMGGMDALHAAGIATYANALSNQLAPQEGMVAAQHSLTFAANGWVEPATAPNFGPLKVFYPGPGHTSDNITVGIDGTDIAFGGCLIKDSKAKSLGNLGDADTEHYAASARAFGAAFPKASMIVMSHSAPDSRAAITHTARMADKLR
Chain of purified class A, C and D enzymes (Escherichia coli, UniProt Q9L5C7) (Q9L5C7 entry or part of it): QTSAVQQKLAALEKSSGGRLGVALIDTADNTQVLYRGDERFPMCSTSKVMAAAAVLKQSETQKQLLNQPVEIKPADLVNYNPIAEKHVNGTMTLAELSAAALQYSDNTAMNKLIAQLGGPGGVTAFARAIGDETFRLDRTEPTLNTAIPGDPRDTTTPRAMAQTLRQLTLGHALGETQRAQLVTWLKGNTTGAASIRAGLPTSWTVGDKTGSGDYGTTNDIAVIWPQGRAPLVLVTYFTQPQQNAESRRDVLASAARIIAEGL
Chain of purified class A, C and D enzymes (Enterobacter cloacae, UniProt P05364) (P05364 21-381): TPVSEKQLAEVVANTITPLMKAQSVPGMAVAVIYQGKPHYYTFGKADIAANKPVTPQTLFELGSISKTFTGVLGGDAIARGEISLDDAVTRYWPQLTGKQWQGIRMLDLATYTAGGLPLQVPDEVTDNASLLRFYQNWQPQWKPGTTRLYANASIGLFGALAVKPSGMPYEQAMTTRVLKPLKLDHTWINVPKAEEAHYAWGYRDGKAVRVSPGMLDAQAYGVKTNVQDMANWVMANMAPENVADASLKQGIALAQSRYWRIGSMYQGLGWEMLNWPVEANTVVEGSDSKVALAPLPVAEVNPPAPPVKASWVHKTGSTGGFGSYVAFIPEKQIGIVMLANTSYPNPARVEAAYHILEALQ

| SMILES | Ki (NDM-1 [1]) [nM] | IC50 (VIM-1) [nM] | Ki [2] [nM] | Ki [3] [nM] | Ki [4] [nM] | Ki (CTX-M-14, NCF) [5] | Ki (P99/AmpC of ECL, NCF) [6] | Ki (NDM-1 [7]) [nM] |
| --- | --- | --- | --- | --- | --- | --- | --- | --- |
| Nc1ncc(S[C@H]2Cc3ccc(F)c(C(=O)O)c3OB2O)s1 [Compound 52, (3R)-3-(2-aminothiazol-5-yl)sulfanyl-7-fluoro-2-hydroxy-3,4-dihydro-1,2-benzoxaborinine-8-carboxylic acid] | > 100 | < 1000 | < 100 | < 100 | < 100 | X (Less than 0.1 μM) | Y (0.1 μM to 1 μM) | > 100 |
| NC(=O)c1cnc(S[C@H]2Cc3ccc(F)c(C(=O)O)c3OB2O)s1 [Compound 53, (3R)-3-(5-carbamoylthiazol-2-yl)sulfanyl-7-fluoro-2-hydroxy-3,4-dihydro-1,2-benzoxaborinine-8-carboxylic acid] | > 100 | < 1000 | < 100 | < 100 | < 100 | X (Less than 0.1 μM) | Y (0.1 μM to 1 μM) | > 100 |
| NC(=O)c1csc(S[C@H]2Cc3ccc(F)c(C(=O)O)c3OB2O)n1 [Compound 54, (3R)-3-(4-carbamoylthiazol-2-yl)sulfanyl-7-fluoro-2-hydroxy-3,4-dihydro-1,2-benzoxaborinine-8-carboxylic acid] | > 100 | < 1000 | < 100 | < 100 | < 100 | X (Less than 0.1 μM) | Y (0.1 μM to 1 μM) | > 100 |
| O=C(O)c1c(F)ccc2c1OB(O)[C@@H](Sc1nnc(C(F)(F)F)s1)C2 [Compound 55, (3R)-7-fluoro-2-hydroxy-3-[[5-(trifluoromethyl)-1,3,4-thiadiazol-2-yl]sulfanyl]-3,4-dihydro-1,2-benzoxaborinine-8-carboxylic acid] | > 100 | ≥ 1000 | 100 to 1000 | 100 to 1000 | < 100 | Y (0.1 μM to 1 μM) | Y (0.1 μM to 1 μM) | > 100 |
| Cn1ncc(C(N)=O)c1S[C@H]1Cc2ccc(F)c(C(=O)O)c2OB1O [Compound 56, (3R)-3-(4-carbamoyl-2-methyl-pyrazol-3-yl)sulfanyl-7-fluoro-2-hydroxy-3,4-dihydro-1,2-benzoxaborinine-8-carboxylic acid] | > 100 | ≥ 1000 | 100 to 1000 | 100 to 1000 | < 100 | Y (0.1 μM to 1 μM) | Z (Greater than 1 μM) | > 100 |
| NCc1cnc(S[C@H]2Cc3ccc(F)c(C(=O)O)c3OB2O)s1 [Compound 57, (3R)-3-[5-(aminomethyl)thiazol-2-yl]sulfanyl-7-fluoro-2-hydroxy-3,4-dihydro-1,2-benzoxaborinine-8-carboxylic acid] | 10 to 100 | < 1000 | 100 to 1000 | < 100 | < 100 | X (Less than 0.1 μM) | Z (Greater than 1 μM) | 10 to 100 |
| O=CNc1cnc(S[C@H]2Cc3ccc(F)c(C(=O)O)c3OB2O)s1 [Compound 58, (3R)-7-fluoro-3-(5-formamidothiazol-2-yl)sulfanyl-2-hydroxy-3,4-dihydro-1,2-benzoxaborinine-8-carboxylic acid] | > 100 | < 1000 | 100 to 1000 | < 100 | < 100 | X (Less than 0.1 μM) | Y (0.1 μM to 1 μM) | > 100 |
| O=C(O)c1c(F)ccc2c1OB(O)[C@@H](Sc1nncs1)C2 [Compound 59, (3R)-7-fluoro-2-hydroxy-3-(1,3,4-thiadiazol-2-ylsulfanyl)-3,4-dihydro-1,2-benzoxaborinine-8-carboxylic acid] | > 100 | < 1000 | < 100 | < 100 | < 100 | X (Less than 0.1 μM) | Y (0.1 μM to 1 μM) | > 100 |
| COc1ccc2c(c1C(=O)O)OB(O)[C@@H](Sc1cnns1)C2 [Compound 60, (3R)-2-hydroxy-7-methoxy-3-(thiadiazol-5-ylsulfanyl)-3,4-dihydro-1,2-benzoxaborinine-8-carboxylic acid] | > 100 | < 1000 | < 100 | < 100 | < 100 | X (Less than 0.1 μM) | Z (Greater than 1 μM) | > 100 |
| COc1ccc2c(c1C(=O)O)OB(O)[C@@H](Sc1nc(C(N)=O)cs1)C2 [Compound 61, (3R)-3-(4-carbamoylthiazol-2-yl)sulfanyl-2-hydroxy-7-methoxy-3,4-dihydro-1,2-benzoxaborinine-8-carboxylic acid] | > 100 | < 1000 | < 100 | < 100 | < 100 | X (Less than 0.1 μM) | Y (0.1 μM to 1 μM) | > 100 |
| COc1ccc2c(c1C(=O)O)OB(O)[C@@H](Sc1nnc(NC(C)=O)s1)C2 [Compound 63, (3R)-3-[(5-acetamido-1,3,4-thiadiazol-2-yl)sulfanyl]-2-hydroxy-7-methoxy-3,4-dihydro-1,2-benzoxaborinine-8-carboxylic acid] | > 100 | < 1000 | 100 to 1000 | < 100 | < 100 | X (Less than 0.1 μM) | X (Less than 0.1 μM) | > 100 |
| COc1ccc2c(c1C(=O)O)OB(O)[C@@H](Sc1nnc(C(F)(F)F)n1N)C2 [Compound 64, (3R)-3-[[4-amino-5-(trifluoromethyl)-1,2,4-triazol-3-yl]sulfanyl]-2-hydroxy-7-methoxy-3,4-dihydro-1,2-benzoxaborinine-8-carboxylic acid] | > 100 | < 1000 | 100 to 1000 | < 100 | < 100 | X (Less than 0.1 μM) | Z (Greater than 1 μM) | > 100 |
| COc1ccc2c(c1C(=O)O)OB(O)[C@@H](SC1CN(C3=NCCS3)C1)C2 [Compound 65, (3R)-3-[1-(4,5-dihydrothiazol-2-yl)azetidin-3-yl]sulfanyl-2-hydroxy-7-methoxy-3,4-dihydro-1,2-benzoxaborinine-8-carboxylic acid] | > 100 | ≥ 1000 | < 100 | < 100 | < 100 | X (Less than 0.1 μM) | Z (Greater than 1 μM) | > 100 |
| COc1ccc2c(c1C(=O)O)OB(O)[C@@H](Sc1nnc(CN)n1N)C2 [Compound 66, (3R)-3-[[4-amino-5-(aminomethyl)-1,2,4-triazol-3-yl]sulfanyl]-2-hydroxy-7-methoxy-3,4-dihydro-1,2-benzoxaborinine-8-carboxylic acid] | 10 to 100 | < 1000 | 100 to 1000 | < 100 | 100 to 1000 | X (Less than 0.1 μM) | Z (Greater than 1 μM) | 10 to 100 |
| COc1ccc2c(c1C(=O)O)OB(O)[C@@H](Sc1nnc(SCC(=N)N)s1)C2 [Compound 67, (3R)-3-[[5-(2-amino-2-imino-ethyl)sulfanyl-1,3,4-thiadiazol-2-yl]sulfanyl]-2-hydroxy-7-methoxy-3,4-dihydro-1,2-benzoxaborinine-8-carboxylic acid] | < 10 | < 1000 | 100 to 1000 | < 100 | < 100 | X (Less than 0.1 μM) | Y (0.1 μM to 1 μM) | < 10 |
| COc1ccc2c(c1C(=O)O)OB(O)[C@@H](Sc1nnc(SCCN3CCNCC3)s1)C2 [Compound 68, (3R)-2-hydroxy-7-methoxy-3-[[5-(2-piperazin-1-ylethylsulfanyl)-1,3,4-thiadiazol-2-yl]sulfanyl]-3,4-dihydro-1,2-benzoxaborinine-8-carboxylic acid] | > 100 | < 1000 | 100 to 1000 | < 100 | < 100 | X (Less than 0.1 μM) | Y (0.1 μM to 1 μM) | > 100 |
